Among the data in patent publication US10428080B2, “TBK/IKK inhibitor compounds and uses thereof” (Merck Patent GmbH, priority 2015, dated 2019) are IC50 values, retold here.

pIC50: −log10 of the molar value. Structures can show the parent of a compound that is named as a salt.

For test [1], the target named is T1, IKKε (Homo sapiens, UniProt Q14164).
T1 sequence (Q14164 1-716): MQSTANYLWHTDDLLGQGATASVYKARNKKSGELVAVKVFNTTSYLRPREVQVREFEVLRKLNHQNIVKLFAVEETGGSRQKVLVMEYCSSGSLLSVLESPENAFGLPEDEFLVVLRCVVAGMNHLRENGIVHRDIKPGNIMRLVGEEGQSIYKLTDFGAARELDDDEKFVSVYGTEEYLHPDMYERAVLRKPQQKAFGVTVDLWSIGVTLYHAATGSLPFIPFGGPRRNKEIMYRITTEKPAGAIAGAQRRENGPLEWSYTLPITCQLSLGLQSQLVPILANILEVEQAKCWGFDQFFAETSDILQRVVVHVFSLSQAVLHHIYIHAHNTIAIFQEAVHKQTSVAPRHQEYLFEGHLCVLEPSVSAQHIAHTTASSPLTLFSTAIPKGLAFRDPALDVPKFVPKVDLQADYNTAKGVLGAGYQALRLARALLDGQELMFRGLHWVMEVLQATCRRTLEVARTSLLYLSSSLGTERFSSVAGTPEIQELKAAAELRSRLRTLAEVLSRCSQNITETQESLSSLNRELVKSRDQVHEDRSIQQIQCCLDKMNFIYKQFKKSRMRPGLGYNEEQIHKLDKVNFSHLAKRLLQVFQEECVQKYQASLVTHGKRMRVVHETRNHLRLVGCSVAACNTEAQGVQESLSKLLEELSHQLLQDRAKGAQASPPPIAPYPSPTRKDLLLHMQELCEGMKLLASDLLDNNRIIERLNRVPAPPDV
Description: IKKe Biochemical Assay. The settings on record: read-out: IKKε IC50. On the procedure: Test compounds were transferred into Labcyte polypropylene 384 well plates (P055-25) and diluted to 3 mM using DMSO. 3 mM test compounds were dispensed using Labcyte ECHO dose response module into (Greiner 784075 plates (columns 3-12 and 13-22, 10 point 1:4) so that high concentration was 30 uM final. 100 uM of a reference compound (1 uM final high concentration). Backfilling was performed if necessary so that all wells contain 1% DMSO final: […]
add 75 nl DMSO/well into columns 1, 2 and 24 using Labcyte Echo. add 75 nl 1.0 mM staurosporine/well into column 23 using Labcyte Echo (10 uM final) add 4.5 ul enzyme/well using multidrop dispenser add 3 ul substrate/well using multidrop dispenser incubate at 25° C. for 90 min. add 7.5 ul 2× stop buffer read on labchip ez reader II using IKKε. job
(§1) Raw data files were opened in the Caliper LabChip Reviewer program (Version 3.0.265.0 SP2) and peak assignments were adjusted to reflect “substrate first” with the software's post-run analysis options. A spline-fit baseline was applied using the software's analysis algorithm.

The target of test [2] is T2, TBK1 (Homo sapiens, UniProt Q9UHD2).
T2 sequence (Q9UHD2 1-729): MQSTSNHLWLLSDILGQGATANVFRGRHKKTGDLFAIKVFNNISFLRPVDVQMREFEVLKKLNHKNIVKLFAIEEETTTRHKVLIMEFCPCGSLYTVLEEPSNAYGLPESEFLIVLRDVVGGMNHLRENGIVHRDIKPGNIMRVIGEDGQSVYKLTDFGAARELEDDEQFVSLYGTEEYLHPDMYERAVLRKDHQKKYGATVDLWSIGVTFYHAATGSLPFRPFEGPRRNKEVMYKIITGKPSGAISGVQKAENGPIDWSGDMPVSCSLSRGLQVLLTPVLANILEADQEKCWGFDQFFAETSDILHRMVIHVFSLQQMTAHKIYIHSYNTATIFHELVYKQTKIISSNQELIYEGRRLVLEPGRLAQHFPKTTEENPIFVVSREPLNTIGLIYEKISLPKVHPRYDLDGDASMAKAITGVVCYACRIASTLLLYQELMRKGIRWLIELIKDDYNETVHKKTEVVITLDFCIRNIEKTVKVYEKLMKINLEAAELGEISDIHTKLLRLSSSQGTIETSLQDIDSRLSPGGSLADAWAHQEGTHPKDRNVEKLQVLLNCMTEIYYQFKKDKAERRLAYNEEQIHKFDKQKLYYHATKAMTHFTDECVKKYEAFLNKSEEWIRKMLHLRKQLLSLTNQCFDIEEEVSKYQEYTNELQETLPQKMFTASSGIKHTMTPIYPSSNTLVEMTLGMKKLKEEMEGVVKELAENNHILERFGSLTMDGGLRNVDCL
The test is described as follows: TBK Biochemical Assay. The note with it: read-out: TBK1 IC50. On the procedure: Example 482: TBK Biochemical Assay
Test compounds were transferred into Labcyte polypropylene 384 well plates (P055-25) and diluted to 3 mM using DMSO. 3 mM test compounds were dispensed using Labcyte ECHO dose response module into Greiner 784075 plates (columns 3-12 and 13-22, 10 point 1:4) so that high concentration was 30 uM final. 100 uM of a reference compound (1 uM final high concentration). Backfilling was performed if necessary so that all wells contain 1% DMSO final: […]
add 75 nl DMSO/well into columns 1, 2 and 24 using Labcyte Echo. add 75 nl 1.0 mM staurosporine/well into column 23 using Labcyte Echo ([…]) add 4.5 ul enzyme/well using multidrop dispenser add 3 ul substrate/well using multidrop dispenser incubate at 25° C. in Heidolph incubator for 90 min. add 7.5 ul 2× stop buffer using multidrop dispenser read on labchip ez reader II using TBK1.job
as §1

Regarding `COc1cc(C(=O)N2CCC(OC)CC2)ccc1-c1cc2nccc(-c3ccc(OC4CCOCC4)c(C#N)c3)c2o1` [Compound 12, 5-(2-[2-Methoxy-4-(4-methoxy-piperidine-1-carbonyl)-phenyl]-furo[3,2-b]pyridin-7-yl}-2-(tetrahydro-pyran-4-yloxy)-benzonitrile], the negative-log IC50 (pIC50) in test [1] and in test [2] was greater than 7.00 in each case.
Regarding `COc1cc(C(=O)N2CCC(C)(O)C2)ccc1-c1cc2nccc(-c3ccc(OC4CCOCC4)c(C#N)c3)c2o1` (centres unmarked) [Compound 19, 5-{2-[4-(3-Hydroxy-3-methyl-pyrrolidine-1-carbonyl)-2-methoxy-phenyl]-furo[3,2-b]pyridin-7-yl}-2-(tetrahydro-pyran-4-yloxy)-benzonitrile], the pIC50 in test [1] and in test [2] was greater than 7.00 in each case.
Consider `COc1cc(C(=O)N2CCCC(O)C2)ccc1-c1cc2nccc(-c3ccc(OC4CCOCC4)c(C#N)c3)c2o1` (centres unmarked) [Compound 22, 5-{2-[4-(3-Hydroxy-piperidine-1-carbonyl)-2-methoxy-phenyl]-furo[3,2-b]pyridin-7-yl}-2-(tetrahydro-pyran-4-yloxy)-benzonitrile], for which the pIC50 in test [1] and in test [2] was greater than 7.00 each time.
For the compound `COc1cc(C(=O)N2CC(S(C)(=O)=O)C2)ccc1-c1cc2nccc(-c3ccc(OC4CCOCC4)c(C#N)c3)c2o1` [Compound 26, 5-{2-[4-(3-Methanesulfonyl-azetidine-1-carbonyl)-2-methoxy-phenyl]-furo[3,2-b]pyridin-7-yl}-2-(tetrahydro-pyran-4-yloxy)-benzonitrile], the pIC50 in test [1] and in test [2] was greater than 7.00 in each case.
Consider `COc1cc(C(=O)N(C)C2CCNCC2)ccc1-c1cc2nccc(-c3ccc(OC4CCOCC4)c(C#N)c3)c2o1` [Compound 41, 4-(7-[3-Cyano-4-(tetrahydro-pyran-4-yloxy)-phenyl]-furo[3,2-b]pyridin-2-yl)-3-methoxy-N-methyl-N-piperidin-4-yl-benzamide hydrochloride], for which the pIC50 in test [1] and in test [2] was greater than 7.00 throughout.
With `COc1cc(C(=O)N2CCC2)ccc1-c1cc2nccc(-c3ccc(OC4CCOCC4)c(C#N)c3)c2o1` [Compound 44, 5-{2-[4-(Azetidine-1-carbonyl)-2-methoxy-phenyl]-furo[3,2-b]pyridin-7-yl}-2-(tetrahydro-pyran-4-yloxy)-benzonitrile], the pIC50 in test [1] and in test [2] was greater than 7.00 in each case.
As for `COc1cc(C(=O)N2CC(C)(O)C2)ccc1-c1cc2nccc(-c3ccc(OC4CCOCC4)c(C#N)c3)c2o1` [Compound 48, 5-{2-[4-(3-Hydroxy-3-methyl-azetidine-1-carbonyl)-2-methoxy-phenyl]-furo[3,2-b]pyridin-7-yl}-2-(tetrahydro-pyran-4-yloxy)-benzonitrile], the negative logarithm of the IC50 (pIC50) in test [1] and in test [2] was greater than 7.00 in each case.
As for `COc1cc(C(=O)N(C)C2CCNC2)ccc1-c1cc2nccc(-c3ccc(OC4CCOCC4)c(C#N)c3)c2o1` (centres unmarked) [Compound 56, 4-{7-[3-Cyano-4-(tetrahydro-pyran-4-yloxy)-phenyl]-furo[3,2-b]pyridin-2-yl}-3-methoxy-N-methyl-N-pyrrolidin-3-yl-benzamide], the negative-log IC50 (pIC50) in test [1] and in test [2] was greater than 7.00 throughout.
Turning to `COc1cc(C(=O)N(C)C2CC2)ccc1-c1cc2nccc(-c3ccc(OC4CCOCC4)c(C#N)c3)c2o1` [Compound 60, 4-{7-[3-Cyano-4-(tetrahydro-pyran-4-yloxy)-phenyl]-furo[3,2-b]pyridin-2-yl}-N-cyclopropyl-3-methoxy-N-methyl-benzamide], the pIC50 in test [1] and in test [2] was greater than 7.00 each time.
Take `COc1cc(C(=O)N(C)C2CCN(C)C2)ccc1-c1cc2nccc(-c3ccc(OC4CCOCC4)c(C#N)c3)c2o1` (centres unmarked) [Compound 61, 4-{7-[3-Cyano-4-(tetrahydro-pyran-4-yloxy)-phenyl]-furo[3,2-b]pyridin-2-yl}-3-methoxy-N-methyl-N-(1-methyl-pyrrolidin-3-yl)-benzamide]: the pIC50 in test [1] and in test [2] was greater than 7.00 throughout.
Consider `COc1cc(C(=O)N2C3COCC2CC(O)C3)ccc1-c1cc2nccc(-c3ccc(OC4CCOCC4)c(C#N)c3)c2o1` (centres unmarked) [Compound 66, 5-{2-[4-(7-Hydroxy-3-oxa-9-aza-bicyclo[3.3.1]nonane-9-carbonyl)-2-methoxy-phenyl]-furo[3,2-b]pyridin-7-yl}-2-(tetrahydro-pyran-4-yloxy)-benzonitrile], for which the pIC50 in test [1] and in test [2] was greater than 7.00 each time.
For `COc1cc(C(=O)N2C[C@H]3C[C@@H](O)C[C@H]3C2)ccc1-c1cc2nccc(-c3ccc(NC4CCOCC4)c(C#N)c3)c2o1` [Compound 81, 5-{2-[4-((3aR,5R,6aS)-5-Hydroxy-hexahydro-cyclopenta[c]pyrrole-2-carbonyl)-2-methoxy-phenyl]-furo[3,2-b]pyridin-7-yl}-2-(tetrahydro-pyran-4-ylamino)-benzonitrile], the pIC50 in test [1] and in test [2] was greater than 7.00 in each case.
For `COc1cc(C(=O)NC2CCOCC2)ccc1-c1cc2nccc(-c3ccc(OC4CCOCC4)c(C#N)c3)c2o1` [Compound 83, 4-{7-[3-Cyano-4-(tetrahydro-pyran-4-yloxy)-phenyl]-furo[3,2-b]pyridin-2-yl}-3-methoxy-N-(tetrahydro-pyran-4-yl)-benzamide], the pIC50 in test [1] and in test [2] was greater than 7.00 throughout.
Turning to `COc1cc(C(=O)N2CC3CC2CO3)ccc1-c1cc2nccc(-c3ccc(NC4CCOCC4)c(C#N)c3)c2o1` (centres unmarked) [Compound 85, 5-{2-[2-Methoxy-4-(2-oxa-5-aza-bicyclo[2.2.1]heptane-5-carbonyl)-phenyl]-furo[3,2-b]pyridin-7-yl}-2-(tetrahydro-pyran-4-ylamino)-benzonitrile], the negative-log IC50 (pIC50) in test [1] and in test [2] was greater than 7.00 in each case.
For `COc1cc(C(=O)NC2(C)CCNC2)ccc1-c1cc2nccc(-c3ccc(OC4CCOCC4)c(C#N)c3)c2o1` (centres unmarked) [Compound 86, 4-{7-[3-Cyano-4-(tetrahydro-pyran-4-yloxy)-phenyl]-furo[3,2-b]pyridin-2-yl}-3-methoxy-N-(3-methyl-pyrrolidin-3-yl)-benzamide hydrochloride], the pIC50 in test [1] and in test [2] was greater than 7.00 in each case.
Turning to `COc1cc(C(=O)N2CCCC2C(F)F)ccc1-c1cc2nccc(-c3ccc(OC4CCOCC4)c(C#N)c3)c2o1` (centres unmarked) [Compound 89, 5-{2-[4-(2-Difluoromethyl-pyrrolidine-1-carbonyl)-2-methoxy-phenyl]-furo[3,2-b]pyridin-7-yl}-2-(tetrahydro-pyran-4-yloxy)-benzonitrile], the negative logarithm of the IC50 (pIC50) in test [1] and in test [2] was greater than 7.00 in each case.
